Test results: US20150031760A1, “PHARMACEUTICAL COMPOSITION FOR PREVENTING OR TREATING NERVOUS SYSTEM DISORDERS COMPRISING SULFURETIN OR PHARMACEUTICALLY ACCEPTABLE SALT THEREOF” (Research and Business Foundation SUNGKYUNKWAN UNIVERSITY, priority 2010, published 2015)
Read-outs that look alike come from different tables or passages of the source.

Tests used:
SH-SY5Y cells [1] = experiment: MTT (cell viability) test, induced cell death in SH-SY5Y cells; settings: Homo sapiens, SH-SY5Y; for viability at 0.1 µg/mL: sulfuretin 0.1 μg/ml; for viability at 0.5 µg/mL: sulfuretin 0.5 μg/ml; for viability at 1 µg/mL: sulfuretin 1 μg/ml; for viability at 5 µg/mL: sulfuretin 5 μg/ml
Procedure: (§1) The incubator was maintained at a temperature of 37° C., and a mixed gas of 95% air and 5% CO2 was continuously supplied thereto to provide suitable conditions for cell culture. The cells were cultured in a 6-well plate or a 96-well plate at each of densities of 1×10^6 and 2×10^4 cells/well 24 hours before the experiment. […] Sulfuretin was used in ethanol and used at a final concentration of 0.1% or less.
To measure cell viability, an MTT reduction assay was used. An MTT solution was added to each well of the 96-well plate (in which the cells have been cultured) to a final concentration of 0.5 mg/ml. The plate was incubated in an incubator for 2 hours, and the medium and the MIT solution were removed, after which DMSO was added thereto and stirred. When DMSO was completely dissolved, the UV absorbance at 540 nm was measured using a microplate reader (Molecular device, USA).
The measured absorbance was substituted into the following equation to calculate cell viability:
Cell viability (%)=[(O.D. of control−O.D. of test group)/O.D. of control]×100

phospho-p38 = experiment: Western blot, phospho-p38 expression; format: cell-based, human; settings: SH-SY5Y cells
Procedure: as §1
(§2) In order to identify the effect of sulfuretin on the expression of proteins related to dementia, Alzheimer's disease, Parkinson's disease and strokes, a Western blot test was carried out.
(§3) After 24 hours, the supernatant of each well was collected and centrifuged at 400 g for 3 minutes, and the cells were washed with cold PBS and lysed with 100 μl of T-PER lysis buffer (Thermo, USA) for 30 minutes. The lysates were centrifuged at 10000 g at 4° C. for 15 minutes, and the supernatants were stored at […] until use as test samples. Proteins were quantitatively analyzed using a BCA assay kit (Thermo, USA) and separated within 8.5-12% SDS gel and then transferred to PVDF membranes. To examine the expression of the proteins, the development of fluorescence was analyzed by enhanced chemiluminescence (ECL). Specifically, the membrane was blocked with 5% skimmed non-fat milk for 1 hour and labeled with the primary antibodies, PARP, caspase-3, phospho-p38, phospho-JNK and β-actin at 4° C. overnight. Then, the membrane was washed three times with Tris-tween buffered saline (TTBS), and then labeled with horseradish peroxidase (HRP)-conjugated anti-rabbit and anti-mouse secondary antibodies at room temperature for 1 hour. Then, the membrane was washed five times with TTBS for 10 minutes. The washed film was developed by ECL using x-ray films, and concentrations were quantitatively analyzed using quantitative analysis program (Fujifilm, Japan).

SH-SY5Y cells [2] = experiment: LDH secretion (cytotoxicity) test; format: cell-based, human
Procedure: as §1
To measure LDH secretion (cytotoxicity), an LDH cytotoxicity assay kit was used. 50 μl of the medium was taken from each well of the 96-well plate (in which the cells have been cultured) and dispensed into each well of a fresh 96-well plate, and 50 μl of a reaction reagent was added to each well, after which the plate was shielded from light. The plate was incubated in an incubator for 30 minutes, and the UV absorbance at 490 nm was measured using a microplate reader (Molecular device, USA).
The measured absorbance was substituted into the following equation to calculate LDH secretion:
LDH secretion (%)=(LDH secretion O.D. in medium/total LDH secretion O.D.)×100

mice = experiment: Scopolamine-induced learning and memory deficits, step-through passive avoidance test; format: in vivo
Procedure: Male ICR mice (4-weeks-old, 18-20 g) were purchased from Koatech Co., Ltd. (Pyongtaek, Korea). Mice were housed 10 per cage, allowed access to water and food ad libitum, and maintained in constant temperature (23±1° C.) and humidity (55±5%) conditions under a 12 hour light/dark cycle (lights on 07:00 to 19:00 h). All experiments were conducted in accord with the NIH Guide for the Care and Use of Laboratory Animals and with the approval of the Institutional Animal Care and Use Committee of Sungkyunkwan University.
Assessment of the training or test trials of the passive avoidance test was carried out in identical illuminated and non-illuminated compartments (12×10×12 cm) containing 2-mm stainless steel rods spaced 0.5 cm apart. A 50 W lamp positioned 1 meter above both chambers illuminated the apparatuses. Briefly, the mice underwent two separate trials, a training trial and a test trial 24 hours later. For the training trial, mice were initially placed in the clear chamber. When they entered the dark chamber, the door closed and a 3-sec electrical foot shock (0.5 mA) was delivered through the stainless steel rods. One hour before each training trial, mice were given sulfretin (0.25, 0.5, or 1 mg/kg, p.o.). After 30 minutes, memory impairment was induced by administering scopolamine (0.5 mg/kg, i.p.). Twenty-four hours after the training trial, mice were placed in the illuminated chamber for the test trial. The time for the mouse to enter the dark compartment after the door opening was defined as latency for both training and test trials. Latencies were recorded for up to 300 s. To avoid a ceiling effect in unimpaired animals, sulfuretin alone was administered 1 hour before the training trial without scopolamine treatment. The intensity of electrical foot shock was set at 0.25 mA for 3 seconds. This lower intensity shock allowed for a behavioral window through which to detect any enhancing effect of sulfuretin.

SH-SY5Y cells [3] = experiment: LDH assay, amyloid beta25-35-induced cytotoxicity; format: cell-based, human; settings: pretreatment with sulfuretin at 2.5, 5, 10 and 20 μM; 20 μM amyloid beta25-35 for 24 h (p<0.001)
phospho-JNK = experiment: Western blot, phospho-JNK expression; format: cell-based, human; settings: SH-SY5Y cells
Procedure: as §1, §2, §3

[4] = read-out: cell viability, 6-hydroxydopamine-induced cell death
[5] = read-out: cell viability, beta-amyloid-induced cell death
[6] = read-out: cell viability, hydrogen peroxide-induced cell death
[7] = hydrogen peroxide + sulfuretin 0.1 μg/ml
[8] = hydrogen peroxide + sulfuretin 0.5 μg/ml
[9] = hydrogen peroxide + sulfuretin 1 μg/ml

Q: What does the source list for `O=C1/C(=C/c2ccc(O)c(O)c2)Oc2cc(O)ccc21` [sulfuretin]?
A: viability at 0.1 µg/mL (SH-SY5Y cells [1]; [4]): ≥ 87%; viability at 0.5 µg/mL (SH-SY5Y cells [1]; [4]): ≥ 97%; viability at 1 µg/mL (SH-SY5Y cells [1]; [4]): ≥ 112%; viability at 5 µg/mL (SH-SY5Y cells [1]; [4]): ≥ 140%; viability at 0.1 µg/mL (SH-SY5Y cells [1]; [5]): ≥ 58%; viability at 0.5 µg/mL (SH-SY5Y cells [1]; [5]): ≥ 64%; viability at 1 µg/mL (SH-SY5Y cells [1]; [5]): ≥ 80%; viability at 5 µg/mL (SH-SY5Y cells [1]; [5]): ≥ 97%; viability at 0.1 µg/mL (SH-SY5Y cells [1]; [6]): ≥ 74%; viability at 0.5 µg/mL (SH-SY5Y cells [1]; [6]): ≥ 97%; viability at 1 µg/mL (SH-SY5Y cells [1]; [6]): ≥ 119%; viability at 5 µg/mL (SH-SY5Y cells [1]; [6]): ≥ 103%; phospho-p38 expression (phospho-p38; [7]): ≤ 157%; phospho-p38 expression (phospho-p38; [8]): ≤ 133%; phospho-p38 expression (phospho-p38; [9]): ≤ 53%; LDH secretion (SH-SY5Y cells [2]; beta-amyloid-induced, sulfuretin 0.1 μg/ml): ≤ 12%; LDH secretion (SH-SY5Y cells [2]; beta-amyloid-induced, sulfuretin 0.5 μg/ml): ≤ 11%; LDH secretion (SH-SY5Y cells [2]; beta-amyloid-induced, sulfuretin 1 μg/ml): ≤ 11%; LDH secretion (SH-SY5Y cells [2]; beta-amyloid-induced, sulfuretin 5 μg/ml): ≤ 9%; LDH secretion (SH-SY5Y cells [2]; hydrogen peroxide-induced, sulfuretin 0.1 μg/ml): ≤ 77%; LDH secretion (SH-SY5Y cells [2]; hydrogen peroxide-induced, sulfuretin 0.5 μg/ml): ≤ 56%; LDH secretion (SH-SY5Y cells [2]; hydrogen peroxide-induced, sulfuretin 1 μg/ml): ≤ 33%; LDH secretion (SH-SY5Y cells [2]; hydrogen peroxide-induced, sulfuretin 5 μg/ml): ≤ 39%; scopolamine-induced decrease of step-through latency time (test trial) (mice; sulfuretin 1 mg/kg, p.o., one hour before training trial, scopolamine 0.5 mg/kg, i.p. (p<0.05)): blocked this decrease; latencies during the training trials (mice; sulfuretin p.o., training trial): did not change; LDH activity (LDH release) (SH-SY5Y cells [3]): significantly decreased; phospho-JNK expression (phospho-JNK; [7]): ≤ 261%; phospho-JNK expression (phospho-JNK; [8]): ≤ 204%; phospho-JNK expression (phospho-JNK; [9]): ≤ 120%
